Source: ChEMBL document CHEMBL5226393, “Semisynthesis of 22,25-Epoxylanostane Triterpenoids: Structure Revision and Protective Effects against Oxygen-Glucose Deprivation/Reoxygenation Injury in H9c2 Cells” (2023)
Active and inactive are the calls of the source. The rule behind the calls is not given here.

Legend:
H9c2 [1] = assay: Cardioprotective activity against OGD/R-induced cell injury in rat H9c2 cells assessed as increase in cell viability at 20 uM subjected to OGD condition for 6 hrs followed by compound treatment and measured after 6 hrs by MTT assay; format: functional, cell-based
H9c2 [2] = assay: Cardioprotective activity against OGD/R-induced cell injury in rat H9c2 cells assessed as increase in cell viability at 100 uM subjected to OGD condition for 6 hrs followed by compound treatment and measured after 6 hrs by MTT assay relative to control; format: functional
H9c2 [3] = assay: Induction of apoptosis in OGD/R-induced rat H9c2 cells assessed as viable cells at 100 uM preincubated with compound followed by treatment under OGD condition by Annexin V-FITC staining based flow cytometric analysis (reference value: 93.9%); format: functional; details: read-out: Activity
H9c2 [4] = assay: Induction of apoptosis in OGD/R-induced rat H9c2 cells assessed as early apoptotic cells at 100 uM preincubated with compound followed by treatment under OGD condition by Annexin V-FITC staining based flow cytometric analysis (reference value: 0.97%); format: functional
H9c2 [5] = assay: Induction of apoptosis in OGD/R-induced rat H9c2 cells assessed as late apoptotic cells at 100 uM preincubated with compound followed by treatment under OGD condition by Annexin V-FITC staining based flow cytometric analysis (reference value: 4.14%); format: functional
H9c2 [6] = assay: Induction of apoptosis in OGD/R-induced rat H9c2 cells assessed as necrotic cells at 100 uM preincubated with compound followed by treatment under OGD condition by Annexin V-FITC staining based flow cytometric analysis (reference value: 1.01%); format: functional
H9c2 [7] = assay: Induction of apoptosis in OGD/R-induced rat H9c2 cells assessed as total apoptotic cells at 100 uM preincubated with compound for 24 hrs followed by treatment under OGD condition by Annexin V-FITC staining based flow cytometric analysis relative to control; format: functional
H9c2 [8] = assay: Cardioprotective activity against OGD/R-induced cell injury in rat H9c2 cells assessed as increase in cell viability at 20 uM subjected to OGD condition for 6 hrs followed by compound treatment and measured after 6 hrs by MTT assay relative to control; format: functional
H9c2 [9] = assay: Cardioprotective activity against OGD/R-induced cell injury in rat H9c2 cells assessed as increase in cell viability at 5 uM subjected to OGD condition for 6 hrs followed by compound treatment and measured after 6 hrs by MTT assay relative to control; format: functional
H9c2 [10] = assay: Induction of apoptosis in OGD/R-induced rat H9c2 cells assessed as viable cells at 5 uM preincubated with compound followed by treatment under OGD condition by Annexin V-FITC staining based flow cytometric analysis (reference value: 93.9%); format: functional; details: read-out: Activity
H9c2 [11] = assay: Induction of apoptosis in OGD/R-induced rat H9c2 cells assessed as early apoptotic cells at 5 uM preincubated with compound followed by treatment under OGD condition by Annexin V-FITC staining based flow cytometric analysis (reference value: 0.97%); format: functional
H9c2 [12] = assay: Induction of apoptosis in OGD/R-induced rat H9c2 cells assessed as late apoptotic cells at 5 uM preincubated with compound followed by treatment under OGD condition by Annexin V-FITC staining based flow cytometric analysis (reference value: 4.14%); format: functional
H9c2 [13] = assay: Induction of apoptosis in OGD/R-induced rat H9c2 cells assessed as necrotic cells at 5 uM preincubated with compound followed by treatment under OGD condition by Annexin V-FITC staining based flow cytometric analysis (reference value: 1.01%); format: functional
H9c2 [14] = assay: Induction of apoptosis in OGD/R-induced rat H9c2 cells assessed as viable cells at 10 uM preincubated with compound followed by treatment under OGD condition by Annexin V-FITC staining based flow cytometric analysis (reference value: 93.9%); format: functional; details: read-out: Activity
H9c2 [15] = assay: Induction of apoptosis in OGD/R-induced rat H9c2 cells assessed as early apoptotic cells at 10 uM preincubated with compound followed by treatment under OGD condition by Annexin V-FITC staining based flow cytometric analysis (reference value: 0.97%); format: functional
H9c2 [16] = assay: Induction of apoptosis in OGD/R-induced rat H9c2 cells assessed as late apoptotic cells at 10 uM preincubated with compound followed by treatment under OGD condition by Annexin V-FITC staining based flow cytometric analysis (reference value: 4.14%); format: functional
H9c2 [17] = assay: Induction of apoptosis in OGD/R-induced rat H9c2 cells assessed as necrotic cells at 10 uM preincubated with compound followed by treatment under OGD condition by Annexin V-FITC staining based flow cytometric analysis (reference value: 1.01%); format: functional
H9c2 [18] = assay: Induction of apoptosis in OGD/R-induced rat H9c2 cells assessed as total apoptotic cells at 5 uM preincubated with compound for 24 hrs followed by treatment under OGD condition by Annexin V-FITC staining based flow cytometric analysis relative to control; format: functional
H9c2 [19] = assay: Induction of apoptosis in OGD/R-induced rat H9c2 cells assessed as total apoptotic cells at 10 uM preincubated with compound for 24 hrs followed by treatment under OGD condition by Annexin V-FITC staining based flow cytometric analysis relative to control; format: functional
H9c2 [20] = assay: Induction of mitochondrial membrane potential loss in OGD/R-induced rat H9c2 cells assessed as increase in red to green fluorescence ratio by JC-1 staining based microscopic analysis relative to control; format: functional

Compound: C[C@H]([C@@H]1C[C@@H](O)C(C)(C)O1)[C@H]1CC[C@@]2(C)C3=C(CC[C@]12C)[C@@]1(C)CC[C@H](O)C(C)(C)[C@@H]1CC3
- Activity (H9c2 [1]): inactive

Compound: C[C@H]([C@@H]1C[C@H](O)C(C)(C)O1)[C@H]1CC[C@@]2(C)C3=C(CC[C@]12C)[C@@]1(C)CC[C@H](O)C(C)(C)[C@@H]1CC3
- Activity (H9c2 [1]): inactive

Compound: CC1=Nc2ccc(Cl)cc2S(=O)(=O)N1 [DIAZOXIDE]
- Activity (H9c2 [2]): 14.9%
- viability at 100 µM (H9c2 [3]): 81.3%
- Activity (H9c2 [4]): 5.41%
- Activity (H9c2 [5]): 12.7%
- Activity (H9c2 [6]): 0.58%
- Activity (H9c2 [7]): 17.3%

Compound: C[C@@H]([C@H]1CC[C@@]2(C)C3=CC[C@H]4C(C)(C)[C@@H](O)CC[C@]4(C)C3=CC[C@]12C)[C@H]1C[C@H](O)C(C)(C)O1
- Activity (H9c2 [1]): inactive

Compound: C[C@H]([C@@H]1C[C@H](O)C(C)(C)O1)[C@H]1CC[C@@]2(C)C3=CC[C@H]4C(C)(C)[C@@H](O)CC[C@]4(C)C3=CC[C@]12C
- Activity (H9c2 [1]): inactive

Compound: C[C@H]([C@@H]1CCC(C)(C)O1)[C@H]1CC[C@@]2(C)C3=C(CC[C@]12C)[C@@]1(C)CC[C@H](O)C(C)(C)[C@@H]1CC3
- Activity (H9c2 [8]): 10.8%

Compound: C[C@@H]([C@H]1CC[C@@]2(C)C3=CC[C@H]4C(C)(C)[C@@H](O)CC[C@]4(C)C3=CC[C@]12C)[C@H]1CCC(C)(C)O1
- Activity (H9c2 [8]): 11.4%

Compound: C[C@@H]([C@H]1CC[C@@]2(C)C3=C(CC[C@]12C)[C@@]1(C)CC[C@H](O)C(C)(C)[C@@H]1CC3)[C@H]1C[C@@H](O)C(C)(C)O1
- Activity (H9c2 [1]): inactive

Compound: C=C(C)[C@@H]1CC=C2C(=CC[C@]3(C)[C@@H]([C@H](C)[C@H]4CCC(C)(C)O4)CC[C@@]23C)[C@@]1(C)CCC(=O)O
- Activity (H9c2 [8]): 17.7%
- Activity (H9c2 [9]): 6.4%

Compound: C[C@@H]([C@H]1CC[C@@]2(C)C3=C(CC[C@]12C)[C@@]1(C)CC[C@H](O)C(C)(C)[C@@H]1CC3)[C@H]1CCC(C)(C)O1
- Activity (H9c2 [8]): 18.7%
- Activity (H9c2 [9]): 11.4%
- viability at 5 µM (H9c2 [10]): 83.7%
- Activity (H9c2 [11]): 2.55%
- Activity (H9c2 [12]): 13.3%
- Activity (H9c2 [13]): 0.52%
- viability at 10 µM (H9c2 [14]): 85.9%
- Activity (H9c2 [15]): 5.12%
- Activity (H9c2 [16]): 8.97%
- Activity (H9c2 [17]): 0.035%
- Activity (H9c2 [18]): 17.4%
- Activity (H9c2 [19]): 14.5%
- Activity (H9c2 [20]): 90%

Compound: C[C@H]([C@@H]1CCC(C)(C)O1)[C@H]1CC[C@@]2(C)C3=CC[C@H]4C(C)(C)[C@@H](O)CC[C@]4(C)C3=CC[C@]12C
- Activity (H9c2 [8]): 10.6%

Compound: C[C@H]([C@@H]1C[C@@H](O)C(C)(C)O1)[C@H]1CC[C@@]2(C)C3=CC[C@H]4C(C)(C)[C@@H](O)CC[C@]4(C)C3=CC[C@]12C
- Activity (H9c2 [1]): inactive

Compound: C[C@@H]([C@H]1CC[C@@]2(C)C3=C(CC[C@]12C)[C@@]1(C)CC[C@H](O)C(C)(C)[C@@H]1CC3)[C@H]1C[C@H](O)C(C)(C)O1
- Activity (H9c2 [1]): inactive

Compound: C[C@@H]([C@H]1CC[C@@]2(C)C3=CC[C@H]4C(C)(C)[C@@H](O)CC[C@]4(C)C3=CC[C@]12C)[C@H]1C[C@@H](O)C(C)(C)O1
- Activity (H9c2 [1]): inactive
